Test results: patent US9211326B2, “Method of enhancing the proliferative phase of a primary T cell response” (Tampa Bay Research Institute, priority 2013, dated 2015)
“Also recorded” adds a separate entry of the source.

How the values were obtained:
Bcl-2 [1] = details: cited from earlier work
Vβ8+ T cells [2] = system: Vβ8+ T cells; parameters: species or system Balb/c mice; details: mouse, in vivo
IL-2 = system: IL-2; parameters: species or system Balb/c mice; details: mouse, in vivo
IFNg = system: IFNg; parameters: species or system Balb/c mice; details: mouse, in vivo
IL-12p70 = system: IL-12p70; parameters: species or system Balb/c mice; details: mouse, in vivo
Bcl-2 [3] = system: Bcl-2; parameters: species or system Balb/c mice; details: mouse, in vivo
Bcl-2 mRNA = assay: qPCR gene expression in lymph node cells: Bcl-2; parameters: species or system Balb/c mice; details: mouse, in vivo
Bcl-xL mRNA = assay: qPCR gene expression in lymph node cells: Bcl-xL; parameters: species or system Balb/c mice; details: mouse, in vivo
Bax mRNA = system: Bax mRNA; parameters: species or system Balb/c mice; details: mouse, in vivo
Vβ8+ T cells [4] = system: Vβ8+ T cells; parameters: species or system Balb/c mice; details: mouse, in vivo; remark: listed apart in the source

Molecule | ROS induced decline in Bcl-2 (Bcl-2 [1]) | numbers of CD3+/CD8+/Vβ8+ T cells (Vβ8+ T cells [2]) | serum IL-2 level (IL-2) | serum IFNg level (IFNg) | serum IL-12p70 level (IL-12p70) | intracellular Bcl-2 protein per Vβ8+ T cell (Bcl-2 [3]) | Bcl-2 mRNA level in lymph nodes (Bcl-2 mRNA) | Bcl-xL mRNA level in lymph nodes (Bcl-xL mRNA) | Bax mRNA level in lymph nodes (Bax mRNA) | percentage of Annexin V positive Vβ8+ T cells (Vβ8+ T cells [4])
O=C(O)c1ccc(/C2=C3\C=CC(=N3)/C(c3ccc(C(=O)O)cc3)=c3/cc/c4[n]3[Mn]([Cl])[n]3c2ccc3/C(c2ccc(C(=O)O)cc2)=C2/C=CC(=N2)\C=4c2ccc(C(=O)O)cc2)cc1 [MnTBAP] | reversed |  |  |  |  |  |  |  |  | 
Staphylococcal enterotoxin B [SEB] |  | remained elevated | significant increase | significant increase | significant increase | equally reduced amounts | suppressed; also recorded: reduction | suppressed; also recorded: reduced | did not appear to be significantly affected | significantly enhanced
